Assay [1] deals with HepG2 cells. The assay can be described thus: Immature and mature SREBP-1 protein expression induced by LXR agonist, Western blot. The following applies: 10 nM T0901317 + 60 μM fatty acid, 24 hr; for immature SREBP-1 expression induced by LXR agonist: membrane fraction; for mature SREBP-1 expression induced by LXR agonist: nuclear fraction. The class given is cell-based, human. The method, then: (§1) HepG2 cells (2.0×10^5 cells/mL) were cultured in DMEM medium containing 10% FES for 24 hr, and the medium was exchanged with 0.1% BSA-containing DMEM medium containing 10 nM LXR agonist T0901317 (Cayman Chemicals) and 60 μM various fatty acid. After culture for 24 hr, the cells were recovered, and total RNA was extracted using Sepasol reagent (Nacalai Tesque). After DNase treatment, reverse transcription was performed using SuperScriptII (Invitrogen) to give a cDNA solution. Using SYBR Green Mix (Bio-Rad, Richmond, Calif.) and gene-specific primer (Table 1), real-time PCR was performed as follows.
(§2) In addition, the protein expression level of immature and mature SREBP-1c was measured. Cells treated as mentioned above were dispersed in buffer A (250 mM sucrose, 10 mM HEPES-KOH, 10 mM KCl, 1.5 mM MgCl2, 1 mM EDTA-Na, 1 mM EGTA-Na, pH 7.6) containing a protease inhibitor, passed 20 times through a 23 gauge injection needle, and centrifuged (1,000×g, 4° C., 5 min) to separate into supernatant 1 and precipitate 1. The precipitate 1 was re-dissolved in buffer B (20 mM HEPES-KOH, 0.42 M NaCl, 2.5% glycerol, 1.5 mM MgCl2, 1 mM EDTA-Na, 1 mM EGTA-Na, pH 7.6), and centrifuged (10^5×g, 4° C., 15 min). The obtained supernatant 2 was used as a nuclear fraction (including mature form). The supernatant 1 was further centrifuged (10^5×g, 4° C., 15 min), and the obtained precipitate 2 was dissolved in cell lysate (10 mM Tris-HCl, 100 mM NaCl, 1% SDS, 1 mM EDTA-Na, 1 mM EGTA-Na) and used as a membrane fraction (including immature form). Using these as samples, measurement was performed by Western blot method using anti-SREBP-1 polyclonal antibody (Santa Cruz). Using Dual luciferase system (Promega), antagonizing action on LXR was evaluated by luciferase assay. p3xIR1-tk-Luc, pCMX-hLXRa, pRL-CMX were introduced into HepG2 cell. After culture in a 0.1% BSA-containing serum-free medium containing various fatty acids and T0901317 for 24 hr, the luciferase activity was measured.
In general terms: In western blotting, separated proteins are transferred to a membrane and probed.

Assay [2] deals with HepG2 cells. The assay can be described thus: Effect on LXR agonist-induced expression of fatty acid synthesis genes, real-time PCR. The class given is cell-based, human. The following applies: 10 nM T0901317 + 60 μM fatty acid, 24 hr. The method, then: Using human liver cancer-derived HepG2 cells (cell No.; JCRB1054, the Health Science Research Resources Bank), a suppressive effect on fatty acid synthesis promotion induced by LXR agonist was evaluated by reference to the method of Zaima et al. (Journal of Lipid Research 47, 2712-2717, 2006).
as §1
1. Reaction at 96° C., 15 min, 2. reaction at 96° C., 15 sec, 3. reaction at 60° C. for 30 sec, 4. measurement of fluorescence, 5. 2-4 were repeated 40 times, 6. the melting curve was measured from 65° C. to 95° C. at 0.4° C. intervals. As the internal standard, 18S rRNA was used. The genes involved in the fatty acid synthesis as measured were Sterol regulatory element binding protein-1c (SREBP-1c), Stearoyl coenzyme A desaturase-1 (SCD-1), Fatty acid synthase (FAS), and Acetyl CoA carboxylase-1 and -2 (ACC-1, 2). As for the amount of accumulated intracellular TG, the lipid was extracted with chloroform-methanol, and quantified by triglyceride-′E Test Wako (Wako Pure Chemical Industries, Ltd.).
A general note: Quantitative PCR measures a nucleic acid by following its amplification.

The next assay has as its target T1, LXR (Homo sapiens, UniProt Q13133).
T1 construct: expressed in transfected cells; host or cells: HepG2 (human liver cancer-derived)
T1 sequence (Q13133 1-447): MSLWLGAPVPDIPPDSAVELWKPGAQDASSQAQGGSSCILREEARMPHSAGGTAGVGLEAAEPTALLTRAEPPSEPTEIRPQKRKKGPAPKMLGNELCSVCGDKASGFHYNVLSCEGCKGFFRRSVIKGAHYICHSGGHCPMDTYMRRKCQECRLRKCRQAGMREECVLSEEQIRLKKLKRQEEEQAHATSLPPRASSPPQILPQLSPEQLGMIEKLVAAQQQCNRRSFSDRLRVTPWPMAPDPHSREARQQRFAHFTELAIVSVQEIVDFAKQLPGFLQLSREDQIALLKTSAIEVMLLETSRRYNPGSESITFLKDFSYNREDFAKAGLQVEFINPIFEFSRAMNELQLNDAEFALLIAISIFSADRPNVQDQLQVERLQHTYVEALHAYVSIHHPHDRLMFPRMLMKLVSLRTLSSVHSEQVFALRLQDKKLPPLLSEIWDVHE
Description: Antagonizing action on LXR by luciferase assay. The format is cell-based. The following applies: for antagonizing action on LXR (relative luciferase activity): HepG2 cells, fatty acid + T0901317, 24 hr; for lipid synthesis suppressive action by the antagonizing action on LXR: overall finding from SREBP-1c, SREBP-1, SCD-1, FAS, ACC1, 2, triacylglycerol and LXR luciferase measurements in HepG2 cells. The method, then: as §2

Take `CCCCC/C=C\CC(O)CCCCCCCCC(=O)O` (stereo not drawn) [HYA, 10-hydroxy-cis-12-octadecenoic acid]: in the assay with HepG2 cells [1], the “immature SREBP-1 expression induced by LXR agonist” value is “strongly suppressed” and the “mature SREBP-1 expression induced by LXR agonist” value is reported as “strongly suppressed”. Also, in the assay on HepG2 cells [2], the “ACC1 mRNA expression induced by LXR agonist” value is “down regulation”, the “ACC2 mRNA expression induced by LXR agonist” value was “down regulation”, the “FAS mRNA expression induced by LXR agonist” value is given as “down regulation” and the “SCD-1 mRNA expression induced by LXR agonist” value is recorded as “down regulation”. The “suppression of SREBP-1c mRNA expression induced by LXR agonist” value in the assay on HepG2 cells [2] is given as “strong suppressive action”. For the same molecule, at LXR, the “antagonizing action on LXR (relative luciferase activity)” value is “significantly suppress the action of T0901317” and the “lipid synthesis suppressive action by the antagonizing action on LXR” value is on record as “strong lipid synthesis suppressive action”.
For the molecule `CCCCC/C=C\CC(=O)CCCCCCCCC(=O)O` [KetoA, 10-oxo-cis-12-octadecenoic acid], in the assay on HepG2 cells [1], the “immature SREBP-1 expression induced by LXR agonist” value is reported as “strongly suppressed” and the “mature SREBP-1 expression induced by LXR agonist” value is “strongly suppressed”. Also, in the assay with HepG2 cells [2], the “ACC1 mRNA expression induced by LXR agonist” value is “down regulation”, the “ACC2 mRNA expression induced by LXR agonist” value was “down regulation”, the “FAS mRNA expression induced by LXR agonist” value was “down regulation” and the “SCD-1 mRNA expression induced by LXR agonist” value is listed as “down regulation”. The “suppression of SREBP-1c mRNA expression induced by LXR agonist” value in the assay on HepG2 cells [2] is “strong suppressive action”. Moreover, on LXR, the “antagonizing action on LXR (relative luciferase activity)” value is reported as “significantly suppress the action of T0901317” and the “lipid synthesis suppressive action by the antagonizing action on LXR” value is reported as “strong lipid synthesis suppressive action”.

The values above are taken from US9707200B2, “Metabolism-improving agent comprising rare fatty acid” (KYOTO UNIVERSITY, priority 2012, dated 2017).
